Structures can show the parent of a compound that is named as a salt.
Legend:
Conditions in all cases: exposure time: 72 h
E13 [1] = patient-derived glioblastoma stem cells of classical subtype; test: surviving fraction (nuclei count normalised to DMSO); higher = more cells surviving (less toxic)
E21 [2] = patient-derived glioblastoma stem cells of mesenchymal subtype; test: as above
E28 [3] = patient-derived glioblastoma stem cells of classical subtype; test: as above
E31 [4] = patient-derived glioblastoma stem cells of proneural subtype; test: as above
E34 [5] = patient-derived glioblastoma stem cells of proneural subtype; test: as above
E57 [6] = patient-derived glioblastoma stem cells of mesenchymal subtype; test: as above
FT3469 [7] = normal neural stem cell line; test: as above
E13 [8] = test: phenotypic distance (Euclidean, principal components) from DMSO controls (arbitrary units); higher = stronger morphological change
E21 [9] = test: as above
E28 [10] = test: as above
E31 [11] = test: as above
E34 [12] = test: as above
E57 [13] = test: as above
FT3469 [14] = test: as above
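Wherever phenotypic distance (Euclidean, principal components) from DMSO controls is given: cell Painting imaging in 384-well plates, CellProfiler features reduced to at least 20 principal components, Euclidean distance versus same-plate DMSO vehicle wells (0.1% v/v), median over six images per well.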
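Wherever surviving fraction (nuclei count normalised to DMSO) is given: nuclei counted by high-content imaging of Hoechst-stained cells in laminin-coated 384-well plates, relative to 0.1% DMSO vehicle wells, with staurosporine as cell-death control.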

CC[C@]1(O)C[C@@H]2CN(CCc3c([nH]c4ccccc34)[C@@](C(=O)OC)(c3cc4c(cc3OC)N(C)[C@H]3[C@@](O)(C(=O)OC)[C@H](OC(C)=O)[C@]5(CC)C=CCN6CC[C@]43[C@@H]65)C2)C1 [Vinblastine sulfate]
Conditions | phenotypic distance | surviving fraction
E13 [1], 4.1 nM | – | 0.22
E13 [1], 12.3 nM | – | 0.177
E13 [1], 37 nM | – | 0.175
E13 [1], 111.1 nM | – | 0.159
E13 [1], 333.3 nM | – | 0.171
E13 [1], 1000 nM | – | 0.162
E13 [1], 3000 nM | – | 0.194
E13 [8], 4.1 nM | 7.96 | –
E13 [8], 12.3 nM | 7.11 | –
E13 [8], 37 nM | 8.76 | –
E13 [8], 111.1 nM | 7.57 | –
E13 [8], 333.3 nM | 9.22 | –
E13 [8], 1000 nM | 8.93 | –
E13 [8], 3000 nM | 9.73 | –
E21 [2], 4.1 nM | – | 0.0927
E21 [2], 12.3 nM | – | 0.0948
E21 [2], 37 nM | – | 0.0937
E21 [2], 111.1 nM | – | 0.08
E21 [2], 333.3 nM | – | 0.0642
E21 [2], 1000 nM | – | 0.0421
E21 [2], 3000 nM | – | 0.0326
E21 [9], 4.1 nM | 9.17 | –
E21 [9], 12.3 nM | 9.98 | –
E21 [9], 37 nM | 11.1 | –
E21 [9], 111.1 nM | 9.54 | –
E21 [9], 333.3 nM | 8.35 | –
E21 [9], 1000 nM | 8.21 | –
E21 [9], 3000 nM | 11 | –
E28 [3], 4.1 nM | – | 0.39
E28 [3], 12.3 nM | – | 0.297
E28 [3], 37 nM | – | 0.291
E28 [3], 111.1 nM | – | 0.236
E28 [3], 333.3 nM | – | 0.269
E28 [3], 1000 nM | – | 0.218
E28 [3], 3000 nM | – | 0.204
E28 [10], 4.1 nM | 3.12 | –
E28 [10], 12.3 nM | 3.85 | –
E28 [10], 37 nM | 4.99 | –
E28 [10], 111.1 nM | 4.47 | –
E28 [10], 333.3 nM | 5.63 | –
E28 [10], 1000 nM | 6.15 | –
E28 [10], 3000 nM | 6.57 | –
E31 [4], 4.1 nM | – | 0.0459
E31 [4], 12.3 nM | – | 0.0237
E31 [4], 37 nM | – | 0.0459
E31 [4], 111.1 nM | – | 0.0325
E31 [4], 333.3 nM | – | 0.0444
E31 [4], 1000 nM | – | 0.0237
E31 [4], 3000 nM | – | 0.0163
E31 [11], 4.1 nM | 6.42 | –
E31 [11], 12.3 nM | 12.9 | –
E31 [11], 37 nM | 11.4 | –
E31 [11], 111.1 nM | 10.7 | –
E31 [11], 333.3 nM | 14.5 | –
E31 [11], 1000 nM | 10.1 | –
E31 [11], 3000 nM | 9.92 | –
E34 [5], 4.1 nM | – | 0.338
E34 [5], 12.3 nM | – | 0.282
E34 [5], 37 nM | – | 0.405
E34 [5], 111.1 nM | – | 0.322
E34 [5], 333.3 nM | – | 0.375
E34 [5], 1000 nM | – | 0.226
E34 [5], 3000 nM | – | 0.281
E34 [12], 4.1 nM | 7.02 | –
E34 [12], 12.3 nM | 7.36 | –
E34 [12], 37 nM | 6.67 | –
E34 [12], 111.1 nM | 7.53 | –
E34 [12], 333.3 nM | 8.9 | –
E34 [12], 1000 nM | 8.95 | –
E34 [12], 3000 nM | 8.01 | –
E57 [6], 4.1 nM | – | 0.0751
E57 [6], 12.3 nM | – | 0.0815
E57 [6], 37 nM | – | 0.0676
E57 [6], 111.1 nM | – | 0.0629
E57 [6], 333.3 nM | – | 0.057
E57 [6], 1000 nM | – | 0.0602
E57 [6], 3000 nM | – | 0.057
E57 [13], 4.1 nM | 5.33 | –
E57 [13], 12.3 nM | 5.47 | –
E57 [13], 37 nM | 6.45 | –
E57 [13], 111.1 nM | 5.46 | –
E57 [13], 333.3 nM | 5.55 | –
E57 [13], 1000 nM | 5.53 | –
E57 [13], 3000 nM | 6.15 | –
FT3469 [7], 4.1 nM | – | 0.427
FT3469 [7], 12.3 nM | – | 0.416
FT3469 [7], 37 nM | – | 0.414
FT3469 [7], 111.1 nM | – | 0.334
FT3469 [7], 333.3 nM | – | 0.372
FT3469 [7], 1000 nM | – | 0.388
FT3469 [7], 3000 nM | – | 0.353
FT3469 [14], 4.1 nM | 3.93 | –
FT3469 [14], 12.3 nM | 4.58 | –
FT3469 [14], 37 nM | 4.48 | –
FT3469 [14], 111.1 nM | 5.12 | –
FT3469 [14], 333.3 nM | 6.19 | –
FT3469 [14], 1000 nM | 5.04 | –
FT3469 [14], 3000 nM | 5.6 | –

CCN(CC)Cc1ccc(C(=O)N(CCc2ccccc2OC)[C@@H]2CCNC2)cc1
Conditions | phenotypic distance | surviving fraction
E13 [1], 4.1 nM | – | 1.08
E13 [1], 12.3 nM | – | 0.868
E13 [1], 37 nM | – | 0.939
E13 [1], 111.1 nM | – | 0.916
E13 [1], 333.3 nM | – | 0.929
E13 [1], 1000 nM | – | 0.865
E13 [1], 3000 nM | – | 0.251
E13 [8], 4.1 nM | 0.886 | –
E13 [8], 12.3 nM | 0.664 | –
E13 [8], 37 nM | 0.732 | –
E13 [8], 111.1 nM | 0.746 | –
E13 [8], 333.3 nM | 0.975 | –
E13 [8], 1000 nM | 0.586 | –
E13 [8], 3000 nM | 6.33 | –
E21 [2], 4.1 nM | – | 0.952
E21 [2], 12.3 nM | – | 0.993
E21 [2], 37 nM | – | 1
E21 [2], 111.1 nM | – | 0.952
E21 [2], 333.3 nM | – | 0.919
E21 [2], 1000 nM | – | 0.996
E21 [2], 3000 nM | – | 0.663
E21 [9], 4.1 nM | 0.354 | –
E21 [9], 12.3 nM | 0.793 | –
E21 [9], 37 nM | 0.496 | –
E21 [9], 111.1 nM | 0.901 | –
E21 [9], 333.3 nM | 4.65 | –
E21 [9], 1000 nM | 0.624 | –
E21 [9], 3000 nM | 4.48 | –
E28 [3], 4.1 nM | – | 0.904
E28 [3], 12.3 nM | – | 1.11
E28 [3], 37 nM | – | 1.04
E28 [3], 111.1 nM | – | 1.12
E28 [3], 333.3 nM | – | 1.03
E28 [3], 1000 nM | – | 1.13
E28 [3], 3000 nM | – | 0.601
E28 [10], 4.1 nM | 0.583 | –
E28 [10], 12.3 nM | 0.51 | –
E28 [10], 37 nM | 0.826 | –
E28 [10], 111.1 nM | 0.771 | –
E28 [10], 333.3 nM | 0.874 | –
E28 [10], 1000 nM | 0.721 | –
E28 [10], 3000 nM | 4.84 | –
E31 [4], 4.1 nM | – | 1.06
E31 [4], 12.3 nM | – | 1.02
E31 [4], 37 nM | – | 1.01
E31 [4], 111.1 nM | – | 1.19
E31 [4], 333.3 nM | – | 0.914
E31 [4], 1000 nM | – | 1.11
E31 [4], 3000 nM | – | 0.62
E31 [11], 4.1 nM | 0.43 | –
E31 [11], 12.3 nM | 0.532 | –
E31 [11], 37 nM | 0.762 | –
E31 [11], 111.1 nM | 0.583 | –
E31 [11], 333.3 nM | 0.607 | –
E31 [11], 1000 nM | 1.18 | –
E31 [11], 3000 nM | 5.34 | –
E34 [5], 4.1 nM | – | 0.806
E34 [5], 12.3 nM | – | 1
E34 [5], 37 nM | – | 0.941
E34 [5], 111.1 nM | – | 1.12
E34 [5], 333.3 nM | – | 1.05
E34 [5], 1000 nM | – | 0.786
E34 [5], 3000 nM | – | 0.859
E34 [12], 4.1 nM | 0.768 | –
E34 [12], 12.3 nM | 0.429 | –
E34 [12], 37 nM | 0.97 | –
E34 [12], 111.1 nM | 1.09 | –
E34 [12], 333.3 nM | 1.04 | –
E34 [12], 1000 nM | 0.887 | –
E34 [12], 3000 nM | 1.55 | –
E57 [6], 4.1 nM | – | 1.16
E57 [6], 12.3 nM | – | 1.03
E57 [6], 37 nM | – | 1.08
E57 [6], 111.1 nM | – | 1.03
E57 [6], 333.3 nM | – | 1.06
E57 [6], 1000 nM | – | 1.05
E57 [6], 3000 nM | – | 0.433
E57 [13], 4.1 nM | 0.619 | –
E57 [13], 12.3 nM | 0.993 | –
E57 [13], 37 nM | 0.517 | –
E57 [13], 111.1 nM | 0.737 | –
E57 [13], 333.3 nM | 0.532 | –
E57 [13], 1000 nM | 0.717 | –
E57 [13], 3000 nM | 7.97 | –
FT3469 [7], 4.1 nM | – | 0.944
FT3469 [7], 12.3 nM | – | 1.04
FT3469 [7], 37 nM | – | 0.955
FT3469 [7], 111.1 nM | – | 1.11
FT3469 [7], 333.3 nM | – | 1.21
FT3469 [7], 1000 nM | – | 1.35
FT3469 [7], 3000 nM | – | 1.18
FT3469 [14], 4.1 nM | 0.348 | –
FT3469 [14], 12.3 nM | 0.837 | –
FT3469 [14], 37 nM | 0.511 | –
FT3469 [14], 111.1 nM | 0.773 | –
FT3469 [14], 333.3 nM | 0.915 | –
FT3469 [14], 1000 nM | 1.23 | –
FT3469 [14], 3000 nM | 2.24 | –
